Source: patent US20260240903A1, “USE OF TRIVALENT CHROMIUM IONS AND/OR METAL CHROMIUM IN PREPARATION OF DRUG FOR IMMUNOTHERAPY OF TUMORS” (SHENZHEN LUOHU PEOPLE'S HOSPITAL, priority 2023, published 2026)

Tests used:
[1] = system: subcutaneous melanoma (B16F10 cells); assay: Growth of subcutaneous melanoma in B16F10 tumor-bearing mice; format: in vivo; conditions: B16F10 tumor-bearing C57BL/6 mice, vein injection twice at 4-day interval; BMS-202 0.1 mg/mouse, Cr^3+ 100 μg/mL 100 μL, 12 days
From the text: A batch of SPF C57BL/6 mice (6 weeks old) were purchased from a company. B16F10 cells were selected as subcutaneous tumor model cells. 5×10^5 B16F10 cells were inoculated on a right side of a dorsal flank of each mouse and cultured for 13 days. When tumor volumes reached 100-200 mm^3, the modeling was successful. The obtained tumor-bearing mice can be used for a subsequent in vivo experiment. Animal experiments all comply with requirements for animal protection ethics and welfare.
The successfully constructed B16 tumor-bearing mice were divided into four groups: a CrCl3 experimental group (amount of chromium ions: 100 μg/mL, 100 μL), a BMS experimental group (0.1 mg/mouse), a CrCl3+BMS experimental group (100 μg/mL, 100 μL CrCl3+0.1 mg BMS/mouse) and a control group (normal saline, 100 μL) (n=3 for each group). On the first day, CrCl3, BMS and CrCl3+BMS were injected into veins of mice in different groups, respectively. […] Tumor growth was monitored every two days by a digital caliper with a tumor volume calculation formula of ½×L×W^2. On the 12th day of treatment, the mice were euthanatized.

IR tyrosine kinases = IR tyrosine kinases (Homo sapiens, UniProt P06213); conditions: background statement; cited from earlier work
Sequence of IR tyrosine kinases (P06213 28-1382): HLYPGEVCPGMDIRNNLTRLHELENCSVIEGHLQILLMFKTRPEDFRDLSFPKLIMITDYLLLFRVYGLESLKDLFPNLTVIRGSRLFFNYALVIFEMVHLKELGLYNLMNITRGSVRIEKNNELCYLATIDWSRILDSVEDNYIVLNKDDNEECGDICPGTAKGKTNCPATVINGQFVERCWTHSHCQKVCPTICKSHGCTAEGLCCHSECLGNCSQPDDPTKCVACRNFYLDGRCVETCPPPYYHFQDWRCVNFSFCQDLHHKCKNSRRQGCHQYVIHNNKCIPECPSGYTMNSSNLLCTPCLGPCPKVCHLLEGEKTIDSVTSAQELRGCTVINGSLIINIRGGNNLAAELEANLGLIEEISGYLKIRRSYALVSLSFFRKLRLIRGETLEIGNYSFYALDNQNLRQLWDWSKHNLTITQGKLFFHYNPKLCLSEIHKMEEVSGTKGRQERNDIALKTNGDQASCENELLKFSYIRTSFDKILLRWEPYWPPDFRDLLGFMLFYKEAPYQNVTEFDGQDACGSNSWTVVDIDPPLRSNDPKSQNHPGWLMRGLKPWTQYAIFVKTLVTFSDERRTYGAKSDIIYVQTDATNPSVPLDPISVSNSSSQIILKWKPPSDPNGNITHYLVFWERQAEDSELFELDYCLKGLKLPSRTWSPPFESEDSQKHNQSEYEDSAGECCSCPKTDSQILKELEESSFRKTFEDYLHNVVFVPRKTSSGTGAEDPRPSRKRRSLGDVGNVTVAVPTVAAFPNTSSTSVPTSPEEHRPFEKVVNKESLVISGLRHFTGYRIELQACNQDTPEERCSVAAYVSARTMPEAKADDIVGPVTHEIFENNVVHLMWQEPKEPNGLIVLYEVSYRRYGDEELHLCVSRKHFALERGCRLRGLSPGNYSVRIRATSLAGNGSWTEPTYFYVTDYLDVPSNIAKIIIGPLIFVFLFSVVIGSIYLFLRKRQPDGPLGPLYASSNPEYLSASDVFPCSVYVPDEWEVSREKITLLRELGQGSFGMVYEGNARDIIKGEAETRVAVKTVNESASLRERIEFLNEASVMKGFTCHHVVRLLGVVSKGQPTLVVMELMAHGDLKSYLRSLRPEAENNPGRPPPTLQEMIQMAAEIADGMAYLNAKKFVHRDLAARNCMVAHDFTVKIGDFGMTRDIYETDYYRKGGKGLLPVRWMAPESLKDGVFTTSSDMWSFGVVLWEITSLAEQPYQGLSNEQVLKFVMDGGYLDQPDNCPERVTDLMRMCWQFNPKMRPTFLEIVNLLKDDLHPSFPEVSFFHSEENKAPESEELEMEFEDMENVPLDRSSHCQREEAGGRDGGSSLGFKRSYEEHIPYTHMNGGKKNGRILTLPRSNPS

macrophages (RAW264.7) = assay: Transwell detection of the promotion of macrophage migration by metal ions; format: cell-based, mouse; conditions: for ability to promote the migration of macrophages: liver cancer cells in lower chamber, metal ions 0, 500, 1000, 2000 μM, RAW264.7 in upper chamber
From the text: This example provides the establishment and validation of a platform for screening metal ions that promotes the migration of immune cells. A specific method is described below. • 1. Preparation of metal ions: metal compounds such as zinc chloride, potassium chloride, magnesium chloride, manganese chloride, anhydrous calcium chloride, aluminium sulfate (octadecahydrate), anhydrous copper(II) chloride, anhydrous iron(III) chloride, iron(II) chloride, chromium(III) chloride hexahydrate and anhydrous cobalt(II) chloride were prepared into solutions ranging from 0 μM to 2000 μM using normal saline, respectively. • 2. Preparation of BM-DCs (bone marrow-derived dendritic cells), RAW264.7 (mouse monocytic leukemia macrophage cells) and mouse spleen lymphocytes • (1) Acquisition of mouse BM-DCs: bone marrow was taken from hind limbs of […] mice, and treated with a red blood cell lysis buffer to remove red blood cells; bone marrow cells (4×10^6 cells) were cultured in a 10 cm culture dish, and 10% FBS, mercaptoethanol (2-ME, 0.8 ng/ml, Sigma) and mouse granulocyte-macrophage colony-stimulating factor (GM-CSF, 20 ng/mL, PeproTech) were added to a DMEM medium and cultured for 7 days; expression levels of CD11c, CD80 and CD86 in cells were detected using antibodies and a flow cytometer. • (2) Mouse macrophages RAW264.7: derived from a cell bank of the Chinese Academy of Sciences and cultured. • (3) Mouse spleen lymphocytes: spleens of C57BL/6 mice were acquired and filtered by a screen into single cells, treated with a red blood cell lysis buffer to remove red blood cells, and centrifuged with lymphocyte isolation solution to isolate the cells for in vitro culture. • 3. Transwell detection of the promotion of the migration of immune cells by metal ions
Liver cancer cells were placed in lower chambers (12 wells) of a Transwell plate, and the above metal ion solutions with different concentrations (0 μM, 500 μM, 1000 μM and 2000 μM) were added to the lower chambers, respectively. After 24 h, the BM-DCs, the RAW264.7 cells and the spleen lymphocytes were placed in upper chambers (2×10^4 cells/well) of the Transwell plate, respectively. The cells were co-cultured for a certain period of time, and nylon membranes of the chambers were taken and stained to observe the migration of the cells.

RAW264.7 cells = assay: CCK-8 assay of toxicity of metal ions; format: cell-based, mouse; conditions: 0-200 μg/mL metal ions, 24 h
Procedure: Toxicities of metal ions with different concentrations on RAW264.7 cells were quantified through a CCK-8 assay. Specific steps are as follows: RAW264.7 cells (2×10^4 cells/well, n=4) were inoculated in a 96-well plate, stayed for a whole night and cultured by media containing metal ions with different concentrations (0 μg/mL, 25 μg/mL, 50 μg/mL, 100 μg/mL and 200 μg/mL) for 24 h, respectively, and cell viability was measured through CCK-8.

PI3K/AKT/mTOR pathway = assay: Protein immunoblotting of the PI3K/Akt/mTOR pathway in RAW264.7 cells; format: cell-based, mouse
Procedure: (§1) Cr^3+ with different concentrations (0 μg/mL, 50 μg/mL, 100 μg/mL and 200 μg/mL) was co-incubated with RAW264.7 cells (1×10^6 cells/well) for 48 h. Cell supernatants and protein samples were collected, and various types of […] including MIP-la were detected through ELISA. The expression of various proteins in a PI3K/Akt/mTOR pathway was detected through protein immunoblotting.

[2] = system: MIP-1α secretion in RAW264.7 cells; assay: ELISA of MIP-1α secretion in RAW264.7 cells; format: cell-based, mouse; conditions: Cr^3+ 0, 50, 100, 200 μg/mL, 48 h
Procedure: as §1

[3] = Stability of metal ions in vitro and in vivo; format: physicochemical

SMILES | effect on tumor growth of subcutaneous melanoma [1] | enhancement of the activity of IR tyrosine kinases (IR tyrosine kinases) | migration promoting effect on macrophages (macrophages (RAW264.7); Cr^3+ between 0 μM and 2000 μM) | ability to promote the migration of macrophages (macrophages (RAW264.7)) | toxicity on RAW264.7 cells (cell viability, CCK-8) (RAW264.7 cells) | activation of the PI3K/AKT/mTOR pathway (PI3K/AKT/mTOR pathway) | expression of AKT and phosphorylated AKT (pAKT) (PI3K/AKT/mTOR pathway; 48 h) | secretion of MIP-1α [2] | stability in vitro and in vivo [3]
COc1nc(OCc2cccc(-c3ccccc3)c2C)ccc1CNCCNC(C)=O [BMS-202, reference compound] | no significant limiting effect on the tumor growth |  |  |  |  |  |  |  | 
O.O.O.O.O.O.[Cl][Cr]([Cl])[Cl] [Cr^3+, chromium(III) chloride hexahydrate] | no significant limiting effect on the tumor growth | six times | significant migration promoting effect | have an ability to promote the migration of macrophages | good biocompatibility (low biological toxicity) | can activate the PI3K/AKT/mTOR pathway | induces high expression | significantly increased | 
[Cl][Cu][Cl] [Cu^2+, anhydrous copper(II) chloride, reference compound] |  |  |  | have an ability to promote the migration of macrophages | relatively high cytotoxicity |  |  |  | 
[Cl][Fe][Cl] [Fe^2+, iron(II) chloride, reference compound] |  |  |  | have an ability to promote the migration of macrophages |  |  |  |  | poor stability in vitro and in vivo and is easily oxidized to Fe^3+
